# Laboratory results from patent US10385145B1, “Liquid photo initiating compound and uses of the same” (CHITEC TECHNOLOGY CO., LTD., priority 2018, dated 2019).
# Read-outs that look alike come from different tables or passages of the source.
# Key:
# [1] = background statement; cited from earlier work
# [2] = background statement, relative to Irgacure 369 where stated; cited from earlier work
# [3] = background statement; cited from earlier work; remark: listed apart in the source
# [4] = Solubility test: dissolution in acrylate mixtures I to III; type: physicochemical; settings: one-hour ultrasonication at room temperature
# Procedure: Mixtures I to III were prepared according to the composition provided below, and then 6 parts by weight of photoinitiator Trgacure® 369 (available from IGM), photoinitiator R-gen® 919 (available from Chitec Technology Co., Ltd.) or photo initiating compound Ia was added to each of the mixtures I to III.
# [5] = Viscosity variation test, 0° C. atmosphere for 7 days; type: physicochemical; settings: for Viscosity, Mixture I, 7 days / Viscosity, Mixture I, Initial: 4 parts by weight photoinitiator in Mixture I; for Viscosity, Mixture I, 7 days / Viscosity, Mixture II, 7 days / Viscosity, Mixture III, 7 days: after 7 days in 0° C. atmosphere; for Viscosity, Mixture I, Initial / Viscosity, Mixture II, Initial / Viscosity, Mixture III, Initial: before exposure; for Viscosity, Mixture II, 7 days / Viscosity, Mixture II, Initial: 4 parts by weight photoinitiator in Mixture II; for Viscosity, Mixture III, 7 days / Viscosity, Mixture III, Initial: 4 parts by weight photoinitiator in Mixture III
# [6] = Photo speed performance test; settings: 6 parts by weight photoinitiator + 2 parts Chivacure DETX in 100 parts black flexo formulation; wet film 25.15 μm; Fusion F300 D-bulb 300 W/inch
# From the text: The black flexo formulation containing Oligomer 6325-100, EM2411 and carbon black (viscosity: 1750 cP) was mixed with a photoinitiator to carry out the photo speed performance test. […] The resultant mixture was coated on a printable pearlescent film (wet film thickness: 25.15 μm); and the coated printable pearlescent film was exposed to an UV light (Fusion F300, D-bulb, 300 W/inch) for curing.
# [7] = Photoinitiator dosage test (curing performance); set-up: key to Curing performance, 1 time of UV light treatment / Curing performance, 2 times of UV light treatment / Curing performance, 3 times of UV light treatment / Curing performance, 4 times of UV light treatment: X: Not tack-free; Δ: Tack-free but not through-cure; ◯: Tack-free and through-cure; settings: for Curing performance, 1 time of UV light treatment / Curing performance, 2 times of UV light treatment / Curing performance, 3 times of UV light treatment / Curing performance, 4 times of UV light treatment: 365 nm, 4 W/inch
# Procedure: The commercially available black flexo ink without a photoinitiator was mixed with a photoinitiator to carry out the photo speed performance test, and the effect of the amount of photo initiating compound Ia on the photo speed performance was evaluated. […] The resultant mixture was coated on a PET film with primer (means for improving adhesion) (dry film thickness: 5 μm). The coated PET film was exposed to an UV light (wavelength: 365 nm; 4 W/inch) for curing.
# [8] = Acute oral toxicity test (LD50), OECD Test Guidelines 423; type: in vivo; settings: for LD50: acute oral, OECD 423; for Acute oral toxicity assessment: judged from LD50 exceeding 5000 mg/kg
# [9] = in UV inks; background statement; cited from earlier work
# [10] = 4 parts by weight photoinitiator
# [11] = 8 parts by weight photoinitiator
structure (smiles),measurement,setting,value
CCC(Cc1ccc(C)cc1)(C(=O)c1ccc(N2CCOCC2)cc1)N(C)C (stereo not drawn) [Irgacure® 379],Reproductive toxicity,[1],reproductive toxicity
CCCCCCNc1ccc(C(=O)C(CC)(Cc2ccccc2)N(C)C)cc1 (stereo not drawn) [compound I],Photo speed,[2],comparable to that of Irgacure® 369
C=CCC(C(=O)c1ccccc1)(c1ccccc1)N(C)C (stereo not drawn) [compound 100],Photo speed,[2],poor photospeeds
CN(C)C(C)(C(=O)c1ccccc1)c1ccccc1 (stereo not drawn) [compound 96],Photo speed,[2],poor photospeeds
CCC(Cc1ccccc1)(C(=O)c1ccc(N(C)CCOC(C)=O)cc1)N(C)C (stereo not drawn) [compound IIa],Acute oral toxicity,[3],high acute oral toxicity
same,Photo speed,[2],comparable to Irgacure® 369
C=CCC(C)(C(=O)c1ccccc1)N1CCOCC1 (stereo not drawn) [compound 93],Photo speed,[2],poor photospeeds
CCC1(C)OCCN1c1ccc(C(=O)C(CC)(Cc2ccccc2)N(C)C)cc1 (stereo not drawn) [Photo initiating compound Ia],"Dissolution, Mixture I",[4]; 6 parts by weight photoinitiator in Mixture I,Completely
same,"Dissolution, Mixture II",[4]; 6 parts by weight photoinitiator in Mixture II,Completely
same,"Dissolution, Mixture III",[4]; 6 parts by weight photoinitiator in Mixture III,Completely
same,Precipitate after exposure to 0° C. atmosphere for 7 days,[5]; 4 parts by weight in mixtures I to III,no precipitate was observed
same,"Viscosity, Mixture I, 7 days",[5],51.2 cP
same,"Viscosity, Mixture I, Initial",[5],41.6 cP
same,"Viscosity, Mixture II, 7 days",[5],406.7 cP
same,"Viscosity, Mixture II, Initial",[5],351.3 cP
same,"Viscosity, Mixture III, 7 days",[5],547.8 cP
same,"Viscosity, Mixture III, Initial",[5],433.1 cP
same,Photo speed,[6],120 m/minute
same,"Curing performance, 1 time of UV light treatment",[7]; [10],X
same,"Curing performance, 2 times of UV light treatment",[7]; [10],X
same,"Curing performance, 3 times of UV light treatment",[7]; [10],X
same,"Curing performance, 4 times of UV light treatment",[7]; [10],Δ
same,"Curing performance, 1 time of UV light treatment",[7]; [11],Δ
same,Solubility in black flexo ink,[7]; amount increased up to 12 parts by weight,no solubility issue was observed
same,LD50,[8],>5000 mg/kg
same,LD50,"[8]; in vivo, read-out: LD50",> 5000 mg/kg
same,Acute oral toxicity assessment,[8],no acute oral toxicity
CCC(Cc1ccccc1)(C(=O)c1ccc(N2CCOCC2)cc1)N(C)C (stereo not drawn) [Irgacure® 369],"Viscosity, Mixture I, 7 days",[5],60.4 cP
same,"Viscosity, Mixture I, Initial",[5],52.7 cP
same,"Viscosity, Mixture II, 7 days",[5],Precipitate
same,"Viscosity, Mixture II, Initial",[5],385.0 cP
same,"Viscosity, Mixture III, 7 days",[5],Precipitate
same,"Viscosity, Mixture III, Initial",[5],487.0 cP
same,Photo speed,[6],120 m/minute
same,"Curing performance, 1 time of UV light treatment",[7]; [10],X
same,"Curing performance, 2 times of UV light treatment",[7]; [10],X
same,"Curing performance, 3 times of UV light treatment",[7]; [10],X
same,"Curing performance, 4 times of UV light treatment",[7]; [10],Δ
same,Dissolution in black flexo ink,[7]; [11],Incomplete dissolution
same,LD50,[8],>5000 mg/kg
same,LD50,"[8]; in vivo, read-out: LD50",> 5000 mg/kg
same,Acute oral toxicity assessment,[8],no acute oral toxicity
same,Reproductive toxicity,[1],reproductive toxicity
same,Dosage above which prone to precipitate,[9],over 4 wt %
C=CCC(C)(C(=O)c1ccccc1)N(C)C (stereo not drawn) [compound 95],Photo speed,[2],poor photospeeds
